Results from ChEMBL document CHEMBL1201862, “PubChem BioAssay data set” (2004).
Active and inactive are the calls of the source.

Legend:
[1] = target: T1, Apoptotic protease-activating factor 1 (Homo sapiens, UniProt O14727); format: functional
T1 sequence (O14727 whole entry): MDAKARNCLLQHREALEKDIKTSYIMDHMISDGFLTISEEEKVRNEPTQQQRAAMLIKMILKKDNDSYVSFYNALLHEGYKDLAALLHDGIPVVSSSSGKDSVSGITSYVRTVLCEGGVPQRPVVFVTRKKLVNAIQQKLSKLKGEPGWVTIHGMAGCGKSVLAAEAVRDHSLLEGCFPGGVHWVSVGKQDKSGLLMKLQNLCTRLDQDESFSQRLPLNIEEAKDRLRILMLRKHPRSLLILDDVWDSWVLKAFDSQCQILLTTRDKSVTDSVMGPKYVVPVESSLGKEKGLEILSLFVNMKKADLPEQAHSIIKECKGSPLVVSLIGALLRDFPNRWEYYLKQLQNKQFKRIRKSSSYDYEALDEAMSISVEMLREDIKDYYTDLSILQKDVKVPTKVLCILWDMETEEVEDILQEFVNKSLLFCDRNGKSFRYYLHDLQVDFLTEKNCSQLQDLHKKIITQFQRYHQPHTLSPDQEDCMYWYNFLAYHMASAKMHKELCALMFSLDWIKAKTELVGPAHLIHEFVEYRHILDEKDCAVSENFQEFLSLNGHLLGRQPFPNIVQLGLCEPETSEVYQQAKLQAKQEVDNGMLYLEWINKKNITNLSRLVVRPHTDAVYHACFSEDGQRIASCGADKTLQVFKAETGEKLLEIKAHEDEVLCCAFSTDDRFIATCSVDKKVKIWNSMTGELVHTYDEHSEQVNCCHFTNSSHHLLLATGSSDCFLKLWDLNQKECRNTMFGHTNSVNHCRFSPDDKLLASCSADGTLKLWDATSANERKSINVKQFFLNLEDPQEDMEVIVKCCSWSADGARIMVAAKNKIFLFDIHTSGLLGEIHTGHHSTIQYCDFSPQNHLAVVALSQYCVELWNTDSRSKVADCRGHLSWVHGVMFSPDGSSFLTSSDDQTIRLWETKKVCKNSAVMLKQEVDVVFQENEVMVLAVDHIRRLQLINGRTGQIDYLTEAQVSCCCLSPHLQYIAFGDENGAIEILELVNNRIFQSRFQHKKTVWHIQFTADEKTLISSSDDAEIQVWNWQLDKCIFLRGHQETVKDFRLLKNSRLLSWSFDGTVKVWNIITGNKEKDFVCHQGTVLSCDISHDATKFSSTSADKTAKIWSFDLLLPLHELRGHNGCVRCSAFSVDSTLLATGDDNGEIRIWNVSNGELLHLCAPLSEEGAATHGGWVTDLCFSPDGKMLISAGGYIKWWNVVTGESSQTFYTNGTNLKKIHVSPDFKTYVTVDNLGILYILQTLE

Large T antigen = Large T antigen (Simian virus 40, UniProt P03070); format: functional, Betapolyomavirus macacae;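 further: Confirmatory-stage PubChem screen for compounds that inhibit SV40 T antigen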
Chain of Large T antigen (P03070 whole entry): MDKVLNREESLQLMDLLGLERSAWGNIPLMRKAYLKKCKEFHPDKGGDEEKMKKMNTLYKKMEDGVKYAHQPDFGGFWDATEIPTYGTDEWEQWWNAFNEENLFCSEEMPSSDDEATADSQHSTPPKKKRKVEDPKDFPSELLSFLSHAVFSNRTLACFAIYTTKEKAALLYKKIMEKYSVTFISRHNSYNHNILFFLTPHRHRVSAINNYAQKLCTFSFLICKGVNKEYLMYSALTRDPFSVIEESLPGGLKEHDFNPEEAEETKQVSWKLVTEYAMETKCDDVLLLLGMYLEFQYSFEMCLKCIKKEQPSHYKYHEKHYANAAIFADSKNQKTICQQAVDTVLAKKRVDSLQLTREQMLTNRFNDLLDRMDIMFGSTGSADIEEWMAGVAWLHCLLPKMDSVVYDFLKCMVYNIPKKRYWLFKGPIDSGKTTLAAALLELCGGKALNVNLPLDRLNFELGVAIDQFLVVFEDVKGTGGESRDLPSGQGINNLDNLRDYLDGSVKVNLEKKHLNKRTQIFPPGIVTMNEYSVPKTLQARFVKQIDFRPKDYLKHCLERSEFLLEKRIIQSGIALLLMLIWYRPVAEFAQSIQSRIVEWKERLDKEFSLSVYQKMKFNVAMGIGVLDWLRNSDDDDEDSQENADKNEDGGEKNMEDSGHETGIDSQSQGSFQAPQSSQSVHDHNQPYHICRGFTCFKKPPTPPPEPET

[2] = target: Beta-2 adrenergic receptor (Homo sapiens, UniProt P07550); experiment: beta2AR agonists driving receptor internalization, dose response, cell-based, FAP fluorogen, flow cytometry, cherry pick 1 (AID 588763); format: functional
Chain of Beta-2 adrenergic receptor (P07550 whole entry): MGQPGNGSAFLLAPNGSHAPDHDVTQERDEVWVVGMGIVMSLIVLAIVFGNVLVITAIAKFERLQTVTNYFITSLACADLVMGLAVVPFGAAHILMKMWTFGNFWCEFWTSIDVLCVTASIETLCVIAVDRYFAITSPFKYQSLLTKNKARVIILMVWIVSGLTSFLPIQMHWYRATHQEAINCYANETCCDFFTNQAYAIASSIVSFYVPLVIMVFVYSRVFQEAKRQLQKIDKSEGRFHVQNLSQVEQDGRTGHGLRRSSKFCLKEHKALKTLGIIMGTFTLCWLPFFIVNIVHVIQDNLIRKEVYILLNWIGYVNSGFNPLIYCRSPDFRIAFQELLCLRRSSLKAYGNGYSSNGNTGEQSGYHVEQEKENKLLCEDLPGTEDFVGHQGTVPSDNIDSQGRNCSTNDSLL

[3] = A Cell Based Secondary Assay To Explore Cytotoxicity of Compounds that Sensitize Mycobacterium Tuberculosis to Beta-Lactam Antibiotics.; format: functional
BJ [4] = experiment: cytotoxicity toward Ras-transformed BJeLR fibroblasts, dose response, cell-based, alamar blue fluorescence, cherrypicked samples (AID 2631); format: functional; conditions: Homo sapiens;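 further: confirmatory dose-response assay in RAS-dependent BJ fibroblasts engineered with TERT, LT and ST, with cytotoxicity read by fluorescence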
[5] = inhibitors of clade B AD8 Env fusion, dose response, cell-based, cherry-pick (AID 652062); format: functional;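 further: luciferase signal from cell-cell fusion driven by HIV-1 clade B AD8 Env; potency is for inhibitors of fusion seen as a drop in luminescence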
[6] = CEM21 lymphoblast cell cytotoxicity, dose response, cytotoxicity control for viral fusion inhibitor project, CellTiter-Glo luminescence, cherry-picked (AID 652042); format: functional, cell-based;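 further: potency for signal decrease meaning cytotoxicity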
[7] = cytotoxicity in HEK-293T NF-kB-Luc cells, dose response, cytotoxicity control for B/T-cell NF-kB inhibitor project, cell-based, uHTS hits (AID 489019); format: functional;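 further: IC50 reflects cytotoxicity as loss of cell viability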
[8] = control 3'UTR Renilla luciferase suppression, dose response, counter-screen for Shn3 inhibitor project, cell-based, Clone20-Shn3RL, cherry-picked (AID 624133); format: functional
[9] = Luminescence-based counterscreen assay for KLF5 inhibitors: dose response cell-based high throughput screening assay to identify cytotoxic compounds using the IEC-6 intestinal epithelial cell line. [Related pubchem assays: 1700 (Primary screen.), 1834 (Confirmation screen.), 1858 (Summary AID.), 1905 (Counterscreen.)]; format: functional
[10] = inhibitors of HIV Env-driven cell fusion, dose response, cherry-pick (AID 652057); format: functional, cell-based
[11] = Luminescence Cell-Based Dose Confirmation HTS to Identify Inhibitors of Platelet Dense Granule Release. [Related pubchem assays: 1663 (Primary HTS), 1678 (Summary of Project)]; format: functional
[12] = Shn3 3'UTR reporter inhibitors, dose response, cell-based, Clone20 osteoblasts, firefly luciferase, cherry-picked (AID 624132); format: functional;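 further: firefly luciferase luminescence from reporter carrying the Shn3 3'UTR in osteoblasts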
Jurkat = experiment: antigen receptor-induced NF-kB inhibitors, dose response, Jurkat, luciferase reporter, luminescence, B- and T-cell (AID 489004); format: functional, cell-based; conditions: Homo sapiens;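 further: NF-kB luciferase reporter Jurkat cells stimulated with PMA plus ionomycin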
BJ [13] = experiment: cells; format: functional, cell-based; conditions: Homo sapiens
[14] = ZM109 Env clade C HIV-1 fusion inhibitors, dose response, HeLa effector, CEM target cells, luciferase, cherry-pick (AID 652058); format: functional, cell-based
[15] = target: Luciferin 4-monooxygenase (Photinus pyralis, UniProt P08659); experiment: firefly luciferase enzyme inhibitors, dose response, biochemical, luminescence (AID 1891)
Chain of Luciferin 4-monooxygenase (P08659 whole entry): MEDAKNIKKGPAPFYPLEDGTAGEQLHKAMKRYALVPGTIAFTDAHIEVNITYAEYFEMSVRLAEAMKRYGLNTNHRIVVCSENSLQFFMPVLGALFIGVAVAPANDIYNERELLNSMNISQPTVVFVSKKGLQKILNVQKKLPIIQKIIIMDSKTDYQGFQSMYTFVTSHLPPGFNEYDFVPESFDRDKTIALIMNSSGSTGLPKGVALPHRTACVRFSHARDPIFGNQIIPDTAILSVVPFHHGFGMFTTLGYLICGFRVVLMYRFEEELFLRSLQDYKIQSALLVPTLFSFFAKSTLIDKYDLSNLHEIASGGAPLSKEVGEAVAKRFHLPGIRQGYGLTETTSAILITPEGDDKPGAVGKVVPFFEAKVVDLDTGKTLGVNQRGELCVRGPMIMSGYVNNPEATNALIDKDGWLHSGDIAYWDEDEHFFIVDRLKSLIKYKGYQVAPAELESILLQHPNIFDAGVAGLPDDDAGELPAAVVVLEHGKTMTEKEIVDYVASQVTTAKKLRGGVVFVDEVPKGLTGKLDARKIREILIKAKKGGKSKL

BJ [16] = experiment: cytotoxicity toward BJ-TERT-LT-ST fibroblasts, dose response, cell-based, RAS-independent, luminescence (AID 1935); format: functional; conditions: Homo sapiens;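 further: BJ fibroblasts immortalized with TERT plus LT and ST oncogenes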
[17] = HepG2 cell cytotoxicity, dose response, cytotoxicity control for Shn3 inhibitor project, CellTiter-Glo, cherry-picked (AID 624134); format: functional, cell-based
[18] = reduction of Shn3 3'UTR firefly luciferase signal, dose response, Schnurri-3 inhibitor project, cell-based, Clone20 osteoblasts, cherry-pick, set 2 (AID 720490); format: functional;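 further: actives lower the luminescence signal as inhibitors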
[19] = off-target signal loss in HeLa-CEM21 co-culture – HeLa F-luc CTL cells, cherry-picked, counter-screen for HIV-1 Env fusion inhibitor project, dose response (AID 652040); format: functional, cell-based;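 further: potency for signal decrease marking cytotoxic or nonspecific inhibition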
[20] = cytotoxicity toward DRD oncogenic fibroblasts, dose response, cell-based, non-viral oncogenic, luminescence (AID 1934); format: functional; conditions: Homo sapiens
[21] = target: T2, Nuclear receptor subfamily 0 group B member 1 (Homo sapiens, UniProt P51843); experiment: Luminescence-based cell-based high throughput dose response assay for inhibitors of the orphan nuclear receptor subfamily 0, group B, member 1 (DAX1; NR0B1). [Related pubchem assays (depositor defined):AID504766, AID504790]; format: functional
T2 sequence (P51843 whole entry): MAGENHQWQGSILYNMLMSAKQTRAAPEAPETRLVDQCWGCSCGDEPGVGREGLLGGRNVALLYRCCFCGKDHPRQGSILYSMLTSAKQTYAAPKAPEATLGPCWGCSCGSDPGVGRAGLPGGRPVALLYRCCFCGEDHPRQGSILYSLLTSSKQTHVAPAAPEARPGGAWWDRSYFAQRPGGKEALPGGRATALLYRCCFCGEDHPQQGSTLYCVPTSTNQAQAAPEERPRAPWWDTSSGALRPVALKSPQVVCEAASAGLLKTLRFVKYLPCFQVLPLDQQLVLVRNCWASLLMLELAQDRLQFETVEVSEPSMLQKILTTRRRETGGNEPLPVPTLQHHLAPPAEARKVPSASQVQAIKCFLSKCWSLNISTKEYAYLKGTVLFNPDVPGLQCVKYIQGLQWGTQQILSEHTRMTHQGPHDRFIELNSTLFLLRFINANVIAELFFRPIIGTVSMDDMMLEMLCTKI

HEK293 [22] = experiment: cells; format: functional, cell-based; conditions: Homo sapiens
CAAX prenyl protease 2 [23] = target: CAAX prenyl protease 2 (Homo sapiens, UniProt Q9Y256); experiment: human Rce1 protease inhibitors, dose response, biochemical, yeast membranes, quenched-peptide fluorescence, cherry-pick (AID 588849)
Chain of CAAX prenyl protease 2 (Homo sapiens, UniProt Q9Y256) (Q9Y256 whole entry): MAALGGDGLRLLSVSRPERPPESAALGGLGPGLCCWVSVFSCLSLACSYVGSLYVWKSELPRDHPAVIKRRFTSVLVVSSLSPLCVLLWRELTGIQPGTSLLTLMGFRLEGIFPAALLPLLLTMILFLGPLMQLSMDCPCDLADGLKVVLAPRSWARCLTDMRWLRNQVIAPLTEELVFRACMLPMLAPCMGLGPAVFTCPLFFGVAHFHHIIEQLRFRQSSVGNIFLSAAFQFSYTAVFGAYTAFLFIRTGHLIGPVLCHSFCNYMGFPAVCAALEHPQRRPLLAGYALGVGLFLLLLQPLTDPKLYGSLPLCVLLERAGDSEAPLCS

[24] = microbe, parasite or virus in culture; format: functional; conditions: Mycobacterium tuberculosis
[25] = growth suppression of PTEN-null colon cells, dose response, cell-based, HCT116 PTEN knockout (AID 1047); format: functional;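 further: HCT116 colon tumor cells with PTEN knocked out; cells exposed to compound for 60 hours before readout; potency for loss of cell viability measured by luminescence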
CAAX prenyl protease 2 [26] = target: CAAX prenyl protease 2 (Saccharomyces cerevisiae S288c, UniProt Q03530); format: biochemical
Chain of CAAX prenyl protease 2 (Saccharomyces cerevisiae S288c, UniProt Q03530) (Q03530 whole entry): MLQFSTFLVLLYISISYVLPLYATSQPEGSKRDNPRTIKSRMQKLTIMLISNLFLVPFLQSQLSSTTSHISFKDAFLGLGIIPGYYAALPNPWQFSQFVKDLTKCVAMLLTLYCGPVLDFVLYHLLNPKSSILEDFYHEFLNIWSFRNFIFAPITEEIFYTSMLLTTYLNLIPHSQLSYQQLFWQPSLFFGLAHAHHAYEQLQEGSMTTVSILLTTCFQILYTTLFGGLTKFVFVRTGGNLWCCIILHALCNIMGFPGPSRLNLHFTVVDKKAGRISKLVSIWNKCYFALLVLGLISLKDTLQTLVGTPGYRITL

Protein skinhead-1 = target: T3, Protein skinhead-1 (Caenorhabditis elegans, UniProt P34707); format: functional
T3 sequence (P34707 whole entry): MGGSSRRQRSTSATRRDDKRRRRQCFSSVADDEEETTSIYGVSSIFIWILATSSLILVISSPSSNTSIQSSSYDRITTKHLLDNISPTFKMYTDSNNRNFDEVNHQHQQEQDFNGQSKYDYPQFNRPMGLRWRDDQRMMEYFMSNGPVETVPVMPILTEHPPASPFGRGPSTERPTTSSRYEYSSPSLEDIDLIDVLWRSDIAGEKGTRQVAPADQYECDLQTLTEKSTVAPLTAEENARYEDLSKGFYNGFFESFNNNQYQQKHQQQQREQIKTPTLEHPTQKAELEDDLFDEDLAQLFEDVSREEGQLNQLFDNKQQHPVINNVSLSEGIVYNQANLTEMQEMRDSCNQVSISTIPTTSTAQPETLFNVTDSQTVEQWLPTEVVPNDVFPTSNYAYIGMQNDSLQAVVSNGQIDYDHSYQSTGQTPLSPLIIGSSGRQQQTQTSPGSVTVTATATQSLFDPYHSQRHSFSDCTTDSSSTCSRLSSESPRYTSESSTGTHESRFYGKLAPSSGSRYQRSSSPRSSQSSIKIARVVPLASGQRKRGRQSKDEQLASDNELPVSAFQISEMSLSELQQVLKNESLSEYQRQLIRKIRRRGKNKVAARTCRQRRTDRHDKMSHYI

[27] = growth suppression of beta-catenin-knockout colon cells, dose response, cell-based, HCT116, human colon tumor (AID 1045); format: functional;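 further: HCT116 colon tumor cells with beta catenin knocked out; cells exposed to compound for 60 hours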
[28] = Luminescence Cell-Based Dose Retest to Confirm Inhibitors of Cancer Stem Cells. [Related pubchem assays (depositor defined):AID2717, AID2721]; format: functional; conditions: Homo sapiens
Trypsin = Trypsin (Sus scrofa, UniProt P00761); experiment: porcine trypsin inhibitors, dose response, selectivity assay for Rce1 protease inhibitor project, biochemical, quenched peptide fluorescence, cherry-pick (AID 488789)
Chain of Trypsin (P00761 whole entry): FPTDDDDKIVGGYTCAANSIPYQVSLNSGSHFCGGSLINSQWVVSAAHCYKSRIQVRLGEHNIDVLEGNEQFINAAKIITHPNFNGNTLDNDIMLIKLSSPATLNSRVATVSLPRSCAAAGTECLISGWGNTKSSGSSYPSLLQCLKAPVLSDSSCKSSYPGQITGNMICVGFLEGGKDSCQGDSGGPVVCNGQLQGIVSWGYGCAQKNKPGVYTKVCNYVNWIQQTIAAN

HEK293 [29] = experiment: inhibitors of LMP1-driven NF-kB reporter, dose response, cell-based, HEK293, luciferase, cherry-pick (AID 588343); format: functional; conditions: Homo sapiens
[30] = target: Latent membrane protein 1 (Human herpesvirus 4 (strain B95-8), UniProt P03230); experiment: TES1-eGFP NF-kB reporter inhibition versus Tet-On dsRED, dose response, selectivity assay for LMP1 NF-kB inhibitor project, imaging, HEK293T, dual-color eGFP/dsRED, cherry-picks (AID 588398); format: functional, cell-based
Chain of Latent membrane protein 1 (P03230 whole entry): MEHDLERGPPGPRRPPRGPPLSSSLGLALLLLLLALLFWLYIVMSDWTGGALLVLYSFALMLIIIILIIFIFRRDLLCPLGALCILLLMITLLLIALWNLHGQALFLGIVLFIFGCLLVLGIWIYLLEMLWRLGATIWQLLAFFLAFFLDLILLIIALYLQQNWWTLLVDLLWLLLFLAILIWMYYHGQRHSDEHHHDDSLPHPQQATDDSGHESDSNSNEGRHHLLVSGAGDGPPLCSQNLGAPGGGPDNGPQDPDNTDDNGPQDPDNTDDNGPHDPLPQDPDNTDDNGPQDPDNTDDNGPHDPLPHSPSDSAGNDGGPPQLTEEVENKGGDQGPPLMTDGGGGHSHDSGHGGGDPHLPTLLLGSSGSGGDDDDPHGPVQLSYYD

CAAX prenyl protease 1 = CAAX prenyl protease 1 (Saccharomyces cerevisiae S288c, UniProt P47154); experiment: Ste24 protease inhibitors, dose response, biochemical, S. cerevisiae, plate reader, cherry-pick (AID 488815)
Chain of CAAX prenyl protease 1 (P47154 whole entry): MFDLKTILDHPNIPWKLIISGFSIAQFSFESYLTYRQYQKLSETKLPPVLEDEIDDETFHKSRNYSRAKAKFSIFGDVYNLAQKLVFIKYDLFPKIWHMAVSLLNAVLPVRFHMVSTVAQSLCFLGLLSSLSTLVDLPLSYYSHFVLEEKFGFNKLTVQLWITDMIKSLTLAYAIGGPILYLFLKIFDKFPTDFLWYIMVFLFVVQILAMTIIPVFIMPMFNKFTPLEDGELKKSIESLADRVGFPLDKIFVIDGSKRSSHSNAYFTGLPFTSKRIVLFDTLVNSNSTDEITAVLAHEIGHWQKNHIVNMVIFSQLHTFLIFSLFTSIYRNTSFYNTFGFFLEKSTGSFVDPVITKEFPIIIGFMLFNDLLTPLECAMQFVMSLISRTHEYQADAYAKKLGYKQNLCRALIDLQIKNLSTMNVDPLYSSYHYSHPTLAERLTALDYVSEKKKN

[31] = target: Dual specificity tyrosine-phosphorylation-regulated kinase 1A (Rattus norvegicus, UniProt Q63470); format: biochemical, Homo sapiens

CCC(CN(C)C)Oc1cc(NCc2ccccc2)c2ncn(C(C)C)c2c1 (stereo unspecified)
IC50 [1]: 7.98 µM (active)

CC(=O)c1cccc(S(=O)(=O)N2CCCC(c3nc(-c4ccc(C)o4)no3)C2)c1 (stereo unspecified)
IC50 (Large T antigen): 36.4 µM (active) | EC50 [2]: 0.143 µM (active)

Cc1ccc(C(=O)OCC(=O)Nc2nc(-c3ccccc3)cs2)cc1NC(=O)c1ccco1
EC50 [2]: 1.41 µM (active)

COc1ccc(C(=O)Nc2nc3ccccc3s2)c(OC)c1
CC50 [3]: 29.7 µM (active) | EC50 (BJ [4]): > 133 µM (inactive) | AC50 [5]: 0.664 µM (active) | AC50 [6]: 14.2 µM (active) | IC50 [7]: > 80 µM (inactive) | AC50 [8]: 43.8 µM (active) | IC50 [9]: 7.69 µM (active) | AC50 [10]: 0.757 µM (active) | EC50 [11]: 1.54 µM (active) | AC50 [12]: 0.523 µM (active) | IC50 (Jurkat): < 0.16 µM (active) | EC50 (BJ [13]): 5.76 µM (active) | AC50 [14]: 6.04 µM (active) | EC50 [15]: 0.241 µM (active) | EC50 (BJ [16]): 17.1 µM (active) | AC50 [17]: 33.5 µM (active) | AC50 [18]: 0.45 µM (active) | AC50 [19]: < 0.26 µM (active) | EC50 [20]: 7.2 µM (active)

CCc1ccc(S(=O)(=O)Nc2c(C)nc3ncnn3c2O)cc1
IC50 [21]: > 67.5 µM (inactive) | IC50 (HEK293 [22]): > 67.5 µM (inactive)

COc1ccc(CNC(=O)c2c(N)n(CCCN3CCOCC3)c3nc4ccccc4nc23)cc1
AC50 (CAAX prenyl protease 2 [23]): 23.9 µM (active) | CC50 [24]: 24.5 µM (active) | EC50 [25]: 17.4 µM (active) | AC50 (CAAX prenyl protease 2 [26]): 22.9 µM (active) | IC50 (Protein skinhead-1): > 100 µM (inactive) | EC50 [27]: 15.3 µM (active) | AC50 [28]: 6.56 µM (active) | AC50 (Trypsin): 10.5 µM (active)

COc1ccc(S(=O)(=O)Cc2ccc(C(=O)NC3CC3)o2)cc1
IC50 [21]: > 67.6 µM (inactive) | IC50 (HEK293 [22]): > 67.6 µM (inactive)

CN1OC[C@@H]2CN[C@H](c3ccc(-c4cc5ccccc5o4)cc3)C[C@@H]21
AC50 (HEK293 [29]): 0.0503 µM (active) | AC50 [12]: < 0.26 µM (active) | AC50 [17]: > 70 µM (inactive) | AC50 [30]: 51.1 µM (active)

COc1ccc2c3c([nH]c2c1)C(C)=NCC3 [HARMALINE]
AC50 (CAAX prenyl protease 1): 2.77 µM (active) | AC50 [31]: 1.24 µM (active)
